How the values were obtained:
Assay type in all cases: biochemical
cathepsin B = target: T1, cathepsin B (Homo sapiens, UniProt P07858); assay: Cathepsin B enzyme inhibition in vitro (kinetic fluorescence assay); conditions: Ki(cathepsin B)/Ki(calpain) ratio
T1 construct: cathepsin B—isolated from human liver; purchased Calbiochem 219362; host or cells: human liver (tissue isolate)
Outline: (§1)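 Kinetic fluorescence (ex 390/em 460 nm), RT. Calpain-I: 20 nM erythrocyte-derived, 100 μM Suc-Leu-Tyr-AMC, imidazole/CaCl2, pH 7.3. Cathepsins, pH 6.0 MES/EDTA/cysteine: B 0.25 nM liver, 100 μM Z-Phe-Arg-AMC; L 1 nM liver, 2 μM Z-Phe-Arg-AMC; S 0.5 nM recombinant, 20 μM Z-Val-Val-Arg-AMC. Cheng-Prusoff Ki, mean of 2–4 curves.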

cathepsin K = target: T2, cathepsin K (Homo sapiens, UniProt P43235); assay: Cathepsin K enzyme inhibition in vitro (kinetic fluorescence assay); conditions: Ki(cathepsin K)/Ki(calpain) ratio
T2 construct: purchased Calbiochem 342001; host or cells: E. coli
T2 sequence (P43235 115-329): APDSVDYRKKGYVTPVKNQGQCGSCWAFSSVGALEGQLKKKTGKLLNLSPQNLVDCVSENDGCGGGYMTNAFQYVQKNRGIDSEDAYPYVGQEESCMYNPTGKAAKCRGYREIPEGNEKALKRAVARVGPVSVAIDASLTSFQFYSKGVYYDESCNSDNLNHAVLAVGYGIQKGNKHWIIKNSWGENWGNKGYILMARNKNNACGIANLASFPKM

cathepsin L = target: T3, cathepsin L (Homo sapiens, UniProt P07711); assay: Cathepsin L enzyme inhibition in vitro (kinetic fluorescence assay); conditions: Ki(cathepsin L)/Ki(calpain) ratio
T3 construct: cathepsin L—isolated from human liver; purchased Calbiochem 219402; host or cells: human liver (tissue isolate)
Outline: as §1

cathepsin S = target: T4, cathepsin S (Homo sapiens, UniProt P25774); assay: Cathepsin S enzyme inhibition in vitro (kinetic fluorescence assay); conditions: Ki(cathepsin S)/Ki(calpain) ratio
T4 construct: purchased Calbiochem 219343; host or cells: E. coli
Outline: as §1

T3 sequence (P07711 114-333): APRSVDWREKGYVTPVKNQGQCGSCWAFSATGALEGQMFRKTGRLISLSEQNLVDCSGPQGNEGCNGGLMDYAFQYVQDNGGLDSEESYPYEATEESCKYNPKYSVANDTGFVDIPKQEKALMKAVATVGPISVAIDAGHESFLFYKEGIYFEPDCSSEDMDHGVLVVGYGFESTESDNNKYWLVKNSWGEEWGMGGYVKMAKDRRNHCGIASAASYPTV
T4 sequence (P25774 115-331): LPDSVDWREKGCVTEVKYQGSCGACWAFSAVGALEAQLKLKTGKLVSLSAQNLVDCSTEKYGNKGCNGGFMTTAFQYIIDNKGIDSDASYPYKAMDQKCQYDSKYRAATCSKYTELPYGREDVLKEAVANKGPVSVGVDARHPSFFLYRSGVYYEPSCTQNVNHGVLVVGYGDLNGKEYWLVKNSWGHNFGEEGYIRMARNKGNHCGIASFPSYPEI

| SMILES | Sel cat. B (cathepsin B) | Sel cat. K (cathepsin K) | Sel cat. L (cathepsin L) | Sel cat. S (cathepsin S) |
| --- | --- | --- | --- | --- |
| NC(=O)C(=O)C(Cc1ccccc1)NC(=O)c1cccnc1-n1ccc(-c2cccc(Cl)c2Cl)n1 (stereo not drawn) [Example 115, N-[3-Amino-2,3-dioxo-1-(phenylmethyl)propyl]-2-[3-(2,3-dichlorophenyl)-1H-pyrazol-1-yl]pyridine-3-carboxamide] | ++ (++ means a Ki(cathepsin B)/Ki(calpain) ratio of ≧30) | ++ (++ means a Ki(cathepsin K)/Ki(calpain) ratio of ≧30) | ++ (++ means a Ki(cathepsin L)/Ki(calpain) ratio of ≧50) | ++ (++ means a Ki(cathepsin S)/Ki(calpain) ratio of ≧100) |
| NC(=O)C(=O)C(Cc1ccccc1)NC(=O)c1cccnc1-n1ccc(-c2c(F)cc(F)cc2F)n1 (stereo not drawn) [Example 116, N-[3-Amino-2,3-dioxo-1-(phenylmethyl)propyl]-2-[3-(2,4,6-trifluorophenyl)-1H-pyrazol-1-yl]pyridine-3-carboxamide] | ++ (++ means a Ki(cathepsin B)/Ki(calpain) ratio of ≧30) | + (+ means 10≦Ki(cathepsin K)/Ki(calpain)<30) | ++ (++ means a Ki(cathepsin L)/Ki(calpain) ratio of ≧50) | ++ (++ means a Ki(cathepsin S)/Ki(calpain) ratio of ≧100) |
| COc1ccc(-c2ccn(-c3ncccc3C(=O)NC(Cc3ccccc3)C(=O)C(N)=O)n2)c(OC)c1 (stereo not drawn) [Example 117, N-[3-Amino-2,3-dioxo-1-(phenylmethyl)propyl]-2-{3-[2,4-bis(methyloxy)phenyl]-1H-pyrazol-1-yl}pyridine-3-carboxamide] | ++ (++ means a Ki(cathepsin B)/Ki(calpain) ratio of ≧30) | ++ (++ means a Ki(cathepsin K)/Ki(calpain) ratio of ≧30) | ++ (++ means a Ki(cathepsin L)/Ki(calpain) ratio of ≧50) | ++ (++ means a Ki(cathepsin S)/Ki(calpain) ratio of ≧100) |
| NC(=O)C(=O)C(Cc1ccccc1)NC(=O)c1cccnc1-n1ccc(-c2ccc3c(c2)OC(F)(F)O3)n1 (stereo not drawn) [Example 118, N-[3-Amino-2,3-dioxo-1-(phenylmethyl)propyl]-2-[3-(2,2-difluoro-1,3-benzodioxol-5-yl)-1H-pyrazol-1-yl]pyridine-3-carboxamide] | ++ (++ means a Ki(cathepsin B)/Ki(calpain) ratio of ≧30) | + (+ means 10≦Ki(cathepsin K)/Ki(calpain)<30) | ++ (++ means a Ki(cathepsin L)/Ki(calpain) ratio of ≧50) | ++ (++ means a Ki(cathepsin S)/Ki(calpain) ratio of ≧100) |
| NC(=O)C(=O)C(Cc1ccccc1)NC(=O)c1cccnc1-n1ccc(-c2cccc3c2OC(F)(F)O3)n1 (stereo not drawn) [Example 119, N-[3-Amino-2,3-dioxo-1-(phenylmethyl)propyl]-2-[3-(2,2-difluoro-1,3-benzodioxol-4-yl)-1H-pyrazol-1-yl]pyridine-3-carboxamide] | ++ (++ means a Ki(cathepsin B)/Ki(calpain) ratio of ≧30) | ++ (++ means a Ki(cathepsin K)/Ki(calpain) ratio of ≧30) | ++ (++ means a Ki(cathepsin L)/Ki(calpain) ratio of ≧50) | ++ (++ means a Ki(cathepsin S)/Ki(calpain) ratio of ≧100) |
| NC(=O)C(=O)C(Cc1ccccc1)NC(=O)c1cccnc1-n1ccc(-c2c(F)ccc(Cl)c2Cl)n1 (stereo not drawn) [Example 120, N-[3-Amino-2,3-dioxo-1-(phenylmethyl)propyl]-2-[3-(2,3-dichloro-6-fluorophenyl)-1H-pyrazol-1-yl]pyridine-3-carboxamide] | ++ (++ means a Ki(cathepsin B)/Ki(calpain) ratio of ≧30) | ++ (++ means a Ki(cathepsin K)/Ki(calpain) ratio of ≧30) | + (+ means 30≦Ki(cathepsin L)/Ki(calpain)<50) | ++ (++ means a Ki(cathepsin S)/Ki(calpain) ratio of ≧100) |
| COc1c(C)cc(C)cc1-c1ccn(-c2ncccc2C(=O)NC(Cc2ccccc2)C(=O)C(N)=O)n1 (stereo not drawn) [Example 121, N-[3-Amino-2,3-dioxo-1-(phenylmethyl)propyl]-2-{3-[3,5-dimethyl-2-(methyloxy)phenyl]-1H-pyrazol-1-yl}pyridine-3-carboxamide] | ++ (++ means a Ki(cathepsin B)/Ki(calpain) ratio of ≧30) | ++ (++ means a Ki(cathepsin K)/Ki(calpain) ratio of ≧30) | ++ (++ means a Ki(cathepsin L)/Ki(calpain) ratio of ≧50) | ++ (++ means a Ki(cathepsin S)/Ki(calpain) ratio of ≧100) |
| NC(=O)C(=O)C(Cc1ccc(F)cc1)NC(=O)c1cccnc1-n1ccc(-c2ccccc2)n1 (stereo not drawn) [Example 123, N-{3-Amino-1-[(4-fluorophenyl)methyl]-2,3-dioxopropyl}-2-(3-phenyl-1H-pyrazol-1-yl)pyridine-3-carboxamide] | ++ (++ means a Ki(cathepsin B)/Ki(calpain) ratio of ≧30) | ++ (++ means a Ki(cathepsin K)/Ki(calpain) ratio of ≧30) | ++ (++ means a Ki(cathepsin L)/Ki(calpain) ratio of ≧50) | ++ (++ means a Ki(cathepsin S)/Ki(calpain) ratio of ≧100) |
| NC(=O)C(=O)C(Cc1ccccc1)NC(=O)c1cccnc1-n1ccc(-c2ccccc2OC(F)(F)F)n1 (stereo not drawn) [Example 124, N-[3-Amino-2,3-dioxo-1-(phenylmethyl)propyl]-2-(3-{2-[(trifluoromethyl)oxy]phenyl}-1H-pyrazol-1-yl)pyridine-3-carboxamide] | ++ (++ means a Ki(cathepsin B)/Ki(calpain) ratio of ≧30) | ++ (++ means a Ki(cathepsin K)/Ki(calpain) ratio of ≧30) | ++ (++ means a Ki(cathepsin L)/Ki(calpain) ratio of ≧50) | ++ (++ means a Ki(cathepsin S)/Ki(calpain) ratio of ≧100) |
| COc1cc(F)ccc1-c1ccn(-c2ncccc2C(=O)NC(Cc2ccccc2)C(=O)C(N)=O)n1 (stereo not drawn) [Example 125, N-[3-Amino-2,3-dioxo-1-(phenylmethyl)propyl]-2-{3-[4-fluoro-2-(methyloxy)phenyl]-1H-pyrazol-1-yl}pyridine-3-carboxamide] | ++ (++ means a Ki(cathepsin B)/Ki(calpain) ratio of ≧30) | ++ (++ means a Ki(cathepsin K)/Ki(calpain) ratio of ≧30) | ++ (++ means a Ki(cathepsin L)/Ki(calpain) ratio of ≧50) | ++ (++ means a Ki(cathepsin S)/Ki(calpain) ratio of ≧100) |
| NC(=O)C(=O)C(Cc1ccc(OCc2ccccc2)cc1)NC(=O)c1cccnc1-n1ccc(-c2ccccc2)n1 (stereo not drawn) [Example 127, N-[3-Amino-2,3-dioxo-1-({4-[(phenylmethyl)oxy]phenyl}methyl)propyl]-2-(3-phenyl-1H-pyrazol-1-yl)pyridine-3-carboxamide] | ++ (++ means a Ki(cathepsin B)/Ki(calpain) ratio of ≧30) | ++ (++ means a Ki(cathepsin K)/Ki(calpain) ratio of ≧30) | ++ (++ means a Ki(cathepsin L)/Ki(calpain) ratio of ≧50) | ++ (++ means a Ki(cathepsin S)/Ki(calpain) ratio of ≧100) |
| COc1ccc(F)cc1-c1ccn(-c2ncccc2C(=O)NC(Cc2ccccc2)C(=O)C(N)=O)n1 (stereo not drawn) [Example 130, N-[3-Amino-2,3-dioxo-1-(phenylmethyl)propyl]-2-{3-[5-fluoro-2-(methyloxy)phenyl]-1H-pyrazol-1-yl}pyridine-3-carboxamide] | ++ (++ means a Ki(cathepsin B)/Ki(calpain) ratio of ≧30) | ++ (++ means a Ki(cathepsin K)/Ki(calpain) ratio of ≧30) | ++ (++ means a Ki(cathepsin L)/Ki(calpain) ratio of ≧50) | ++ (++ means a Ki(cathepsin S)/Ki(calpain) ratio of ≧100) |

From patent US9139557B2, “Carboxamide compounds and their use as calpain inhibitors” (Abbott GmbH & Co. KG, priority 2006, dated 2015)
